Data: article PMC10733463, “Berberine-microbiota interplay: orchestrating gut health through modulation of the gut microbiota and metabolic transformation into bioactive metabolites” (Frontiers in Pharmacology, 2023)

Key:
[1] = UPLC-MS/MS quantification of berberine and metabolites in plasma; format: in vivo, Ross 308 broiler chickens; conditions: chickens fed 0.1, 0.5 or 1 g berberine/kg feed for 21 days; LOQ 0.1 ng/mL
Source text: (§1) The study was undertaken following the guidelines of the ethics committee of the Faculty of Veterinary Medicine and Bioscience Engineering, Ghent University, in accordance with the EU Directive 2010/63/EU. One-day-old Ross 308 male broilers were obtained from a local hatchery and housed in pens on wood shavings. They were allotted into 4 groups, with three replicate pens per group each housing 8 chickens. The animals were not vaccinated. Water and commercial starter feed (day 1–12, FARM 1 Mash, Country’s Best, Versele Laga, Deinze, Belgium) or grower (day 13–21, FARM 2 mash, Country’s Best, Versele Laga, Deinze, Belgium) were provided ad libitum. The control group received the standard non-supplemented diets, whereas the chickens in other groups were fed the same feed supplemented with 0.1, 0.5 or 1 g berberine/kg feed throughout the whole trial period. At day 21, 4 birds per pen were weighted then euthanized by sodium pentobarbital injection for sampling. Individual jejunal, ileal, caecal and colonic contents were stored at −20°C for microbiota composition analysis (16S rRNA gene sequencing). Additionally, ileal and caecal content samples were collected and stored at −20°C for berberine and berberine-derived metabolite quantification. Duodenal tissue samples were collected and fixed in 4% phosphate buffered formaldehyde for histological analysis. Blood samples were collected in heparin tubes and centrifuged at 524 g for 10 min to recover the plasma fraction, which was further mixed with 17 mg/mL L-ascorbic acid for dihydroberberine stabilization, and stored at −20°C for berberine and berberine-derived metabolite quantification.
(§2) The column temperature was maintained at 25°C. The autosampler temperature was set at 10°C.
A 137.5 µL plasma sample containing 17 mg/mL L-ascorbic acid was used for sample extraction. The ascorbic acid solution was added to prevent oxidation of dihydroberberine to berberine during sample storage ([Feng et al., 2015]). The plasma sample was transferred to an OstroTM 96 well-plate (25 mg) (Waters). Subsequently, 50 µL Milli-Q water and 25 µL of an internal standard solution containing 100 ng/mL of both berberine-d6 and tetrahydropalmatine were added. A 640 µL volume of 1% (v/v) formic acid solution in acetonitrile (1/3 ratio) was added, followed by gentle mixing. Vacuum was applied on the Ostro™ plate for 5 min and the eluate was collected in a 2 mL square 96-well collector plate. The sample was transferred in a glass tube and evaporated at 40°C under a gentle stream of nitrogen in a Pierce (Rockford, United States) Reacti-Therm III™ Heating Module and Reacti-Vap™ III Module. The dried sample extract was reconstituted in 500 µL Milli-Q water, followed by injection of a 5 µL sample aliquot onto the UPLC-MS/MS apparatus. Quantification was based on the ratio of the analyte peak area compared to the peak area of the internal standard berberine-d6.
Calibration standards and quality control samples were prepared as follows: 137.5 µL of blank plasma stabilized with 17 mg/mL L-ascorbic acid were supplemented with 25 µL mixed working solutions of berberine and metabolites (except dihydroberberine) at different levels, 25 µL of dihydroberberine working solution, stabilized with 17 mg/mL L-ascorbic acid, at different levels and 25 µL of an internal standard solution containing 100 ng/mL of both berberine-d6 and tetrahydropalmatine. The calibration curve was in the 0.1–100 ng/mL range, including 0.1, 0.5, 1, 2.5, 5, 10, 25, […], 50 and 100 ng/mL levels.
The UPLC-MS/MS analysis method for the quantification of berberine and berberine-derived metabolites both in plasma and ileal/caecal intestinal content was validated to the guidelines of the European Medicines Agency, i.e., of the Committee for Veterinary Medicinal Products (EMEA/CVMP/VICH/463202/2009) and of the Committee for Medicinal Products for Human Use (EMEA/CHMP/EWP/192217/20), and in accordance with the EU Directive 2002/657/EC. […]

[2] = Dihydroberberine stability in solution over 24 hours; format: physicochemical; conditions: within 24 h; 10 ng/mL in Milli-Q water, 10°C, without vitamin C
Method: A working solution of dihydroberberine at 10 ng/mL was prepared in Milli-Q water and supplemented or not with 17 mg/mL L-ascorbic acid (vitamin C) solution and injected during 24 hours of storage time in the autosampler at 10°C.

[3] = UPLC-MS/MS quantification of berberine and metabolites in ileal and caecal content; format: in vivo, Ross 308 broiler chickens; conditions: 21 days
Source text: as §1, §2
250 mg of ileal or caecal content was weighed in a 15 mL polypropylene centrifuge tube and 250 µL of ascorbic acid 170 mg/mL solution was added for stabilization of dihydroberberine, followed by brief vortexing. Subsequently, 25 µL of an internal standard solution containing 250 μg/mL of berberine-d6 and 2.5 μg/mL tetrahydropalmatine were added, followed by brief vortexing. A 2.5 mL volume of extraction solvent was then added, consisting of a 1% (v/v) formic acid solution in methanol. The sample was put on a rotary shaker set at 80 rpm for 20 min, followed by centrifugation (3,720 g, 10 min, 4°C). The supernatant was then diluted, by a factor 5 for measurement of low abundance components, and by a factor 2,000 for measurement of high abundance components. The 1/5 diluted sample extract was prepared directly in an autosampler vial as follows: 200 µL sample extract were mixed with 100 µL ascorbic acid 170 mg/mL solution and 700 µL Milli-Q water. For the 1/2,000 diluted sample extract, an intermediate 1/100 sample dilution was prepared by combining 500 µL sample extract and 49.5 mL of Milli-Q water. 50 μL was then transferred in an autosampler vial followed by the addition of 950 µL of Milli-Q water. For both dilutions, a 5 µL sample aliquot was injected onto the UPLC-MS/MS apparatus. Quantification was based on the ratio of the analyte peak area compared to the peak area of the internal standard tetrahydropalmatine for 1/5 diluted sample extracts, and on the ratio of the analyte peak area compared to the peak area of the internal standard berberine-d6 for 1/2,000 diluted sample extracts.
Calibration standards and quality control samples were prepared as follows: 250 mg of blank ileal or caecal content were supplemented with 250 µL of ascorbic acid 170 mg/mL solution, 25 µL mixed solution of berberine and metabolites (with the exception of dihydroberberine) at different levels, 25 µL of dihydroberberine solution, stabilized with 17 mg/mL ascorbic acid, at different levels and 25 µL of an internal standard solution containing 0.625 μg/mL of berberine-d6 and 2.5 μg/mL tetrahydropalmatine. The calibration curve was in the 62.5–5,000 ng/g range, and included 62.5, 125, 250, 500, 1,000, 2,500, and 5,000 ng/g levels. […]

Caco-2 cells = assay: Berberine metabolism in intestinal cell cultures, Caco-2; format: in vitro ADME, human
Method: (§3) Caco-2 and T84 cells were seeded at 2 × 10^5 cells/well in 96-well plates and cultivated for 24 h in their respective medium, as described before. Cells were treated with 200 µL of 0.1 μg/mL berberine in antibiotic-free medium and incubated for 48 h. Berberine medium only was incubated in the same conditions as the cells and used as control for metabolite baseline levels. 100 μL of cell cultures or control medium were collected and centrifuged at 13,000 g for 10 min 80 μL of the supernatant was mixed with 20 µL 170 mg/mL L-ascorbic acid solution in water for dihydroberberine stabilization and stored at −20°C until metabolite analysis. All experiments were performed in triplicate at 37°C, 5% CO2. Metabolite production was expressed as a log2 fold change, calculated as the log2 of the ratio of the metabolite response at t = 48 h in the cell cultures over the metabolite response at t = 48 h in the control medium.
as §2

T84 cells = assay: Berberine metabolism in intestinal cell cultures, T84; format: in vitro ADME, human
Method: as §3, §2

Detection in plasma [1]	Oxidation of dihydroberberine back to berberine [2]	Ratio caecum / ileum (concentration) ([3]; 0.1 g berberine/kg feed)	Ratio caecum / ileum (concentration) ([3]; 0.5 g berberine/kg feed)	Ratio caecum / ileum (concentration) ([3]; 1 g berberine/kg feed)	Detection in cell culture (Caco-2 cells; Caco-2, 0.1 μg/mL berberine, 48 h)	Detection in cell culture (T84 cells; T84, 0.1 μg/mL berberine, 48 h)	Log2(fold change) of metabolite response, cell culture over berberine control medium at 48 h (Caco-2 cells; human, Caco-2, 48 h, 0.1 µg/mL)	Log2(fold change) of metabolite response, cell culture over berberine control medium at 48 h (T84 cells; human, 0.1 µg/mL)	Compound
effectively detected	up to 66%	0.75	0.27	0.44					COc1ccc2c(c1OC)CN1CCc3cc4c(cc3C1=C2)OCO4 [Dihydroberberine, dihydroberberine]
not detected		1.94	1.48	0.95	not detected	not detected			COc1ccc2cc3n(c(=O)c2c1OC)CCc1cc2c(cc1-3)OCO2 [Oxyberberine, oxyberberine]
							-0.18	-0.72	COc1cc2c(cc1OC)-c1cc3ccc(OC)c(OC)c3c[n+]1CC2 [Palmatine, palmatine chloride]
